Laboratory results as given in US11472791B2 (Incyte Corporation, priority 2019, dated 2022).

Target: CDK2/Cyclin E1 (Homo sapiens (Human), UniProt P24941)
Experiment: CDK2/Cyclin E1 HTRF enzyme activity assay
Assay type: biochemical
Conditions: 1 mM ATP
Protocol: Assays are conducted in white 384-well polystyrene plates in a final reaction volume of 8 μL. […] HTRF signals are read after 1 hour at room temperature on a PHERAstar FS plate reader (BMG Labtech). Data is analyzed with IDBS XLFit and GraphPad Prism 5.0 software using a three or four parameter dose response curve to determine IC50 for each compound.

| Compound | IC50 |
| --- | --- |
| CS(=O)(=O)N1CCC(Nc2ncc(C(F)(F)F)c(-c3cnn(-c4ccccc4F)c3)n2)CC1 [Example 13, 4-(1-(2-Fluorophenyl)-1H-pyrazol-4-yl)-N-(1-(methylsulfonyl)piperidin-4-yl)-5-(trifluoromethyl)pyrimidin-2-amine] | < 50 nM |
| CO[C@H]1C[C@@H](NCc2ccc(-n3cc(-c4nc(NC5CCN(S(C)(=O)=O)CC5)ncc4C#N)cn3)c(Cl)c2)C1 [Example 163, 4-(1-(2-Chloro-4-((((1s,3s)-3-methoxycyclobutyl)amino)methyl)phenyl)-1H-pyrazol-4-yl)-2-((1-(methylsulfonyl)piperidin-4-yl)amino)pyrimidine-5-carbonitrile] | < 50 nM |
| CC(C)(O)Cn1cc(-c2nc(NC3CCN(S(=O)(=O)CCCN4C[C@@H]5C[C@H]4CO5)CC3)ncc2C(F)(F)F)cn1 [Example 222, 1-(4-(2-((1-((3-((1S,4S)-2-Oxa-5-azabicyclo[2.2.1]heptan-5-yl)propyl)sulfonyl)piperidin-4-yl)amino)-5-(trifluoromethyl)pyrimidin-4-yl)-1H-pyrazol-1-yl)-2-methylpropan-2-ol] | < 50 nM |
| CC(C)(O)Cn1cc(-c2nc(NC3CCN(S(=O)(=O)CCCN4CCCCC4)CC3)ncc2C#N)cn1 [Example 215, 4-(1-(2-Hydroxy-2-methylpropyl)-1H-pyrazol-4-yl)-2-((1-((3-(piperidin-1-yl)propyl)sulfonyl)piperidin-4-yl)amino)pyrimidine-5-carbonitrile] | < 50 nM |
| CS(=O)(=O)N1CCC(Nc2ncc(C#N)c(-c3cnn(-c4ccc(CN[C@@H]5CCCC[C@@H]5O)cc4Cl)c3)n2)CC1 [Example 179, 4-(1-(2-Chloro-4-((((1R,2S)-2-hydroxycyclohexyl)amino)methyl)phenyl)-1H-pyrazol-4-yl)-2((1-(methylsulfonyl)piperidin-4-yl)amino)pyrimidine-5-carbonitrile] | < 50 nM |
| CS(=O)(=O)N1CCC(Nc2ncc(C#N)c(-c3cnn(-c4ccc(CN[C@H]5CC[C@@H](CO)CC5)cc4Cl)c3)n2)CC1 [Example 289, 4-(1-(2-chloro-4-((((1s,4s)-4-(hydroxymethyl)cyclohexyl)amino)methyl)phenyl)-1H-pyrazol-4-yl)-2-((1-(methylsulfonyl)piperidin-4-yl)amino)pyrimidine-5-carbonitrile] | < 50 nM |
| CC(C)(O)Cn1cc(-c2nc(NC3CCN(S(=O)(=O)C4CCC(N5CCCC5)CC4)CC3)ncc2C(F)(F)F)cn1 (single isomer, unassigned) [91 (peak 1), 2-Methyl-1-(4-(2-((1-((4-(pyrrolidin-1-yl)cyclohexyl)sulfonyl)piperidin-4-yl)amino)-5-(trifluoromethyl)pyrimidin-4-yl)-1H-pyrazol-1-yl)propan-2-ol] | < 50 nM |
| CS(=O)(=O)N1CC(Nc2ncc(C(F)(F)F)c(-c3cnn(C4CCOCC4)c3)n2)C1 [Example 20, N-(1-(Methylsulfonyl)azetidin-3-yl)-4-(1-(tetrahydro-2H-pyran-4-yl)-1H-pyrazol-4-yl)-5-(trifluoromethyl)pyrimidin-2-amine] | 500 to 1000 nM |
| CC(C)(O)Cn1cc(-c2nc(NC3CCN(S(=O)(=O)CCN4CCOCC4)CC3)ncc2C(F)(F)F)cn1 [Example 84, 2-Methyl-1-(4-(2-((1-((2-morpholinoethyl)sulfonyl)piperidin-4-yl)amino)-5-(trifluoromethyl)pyrimidin-4-yl)-1H-pyrazol-1-yl)propan-2-ol] | < 50 nM |
| CC(C)(O)Cn1cc(-c2nc(NC3CCN(S(=O)(=O)CCCN4CC[C@@H](O)C4)CC3)ncc2C(F)(F)F)cn1 [Example 224, (R)-1-(3-((4-((4-(1-(2-Hydroxy-2-methylpropyl)-1H-pyrazol-4-yl)-5-(trifluoromethyl)pyrimidin-2-yl)amino)piperidin-1-yl)sulfonyl)propyl)pyrrolidin-3-ol] | < 50 nM |
| C[C@@H]1CN(S(=O)(=O)c2ccccn2)CC[C@@H]1Nc1ncc(C(F)(F)F)c(-c2cnn(CC(C)(C)O)c2)n1 [Example 62, 2-Methyl-1-(4-(2-(((3R,4S)-3-methyl-1-(pyridin-2-ylsulfonyl)piperidin-4-yl)amino)-5-(trifluoromethyl)pyrimidin-4-yl)-1H-pyrazol-1-yl)propan-2-ol] | < 50 nM |
| CC(C)(O)Cn1cc(-c2nc(N[C@H]3CCN(S(=O)(=O)CCCN4CCC(O)CC4)C[C@H]3F)ncc2C(F)(F)F)cn1 [Example 208, 1-(3-(((3R,4S)-3-Fluoro-4-((4-(1-(2-hydroxy-2-methylpropyl)-1H-pyrazol-4-yl)-5-(trifluoromethyl)pyrimidin-2-yl)amino)piperidin-1-yl)sulfonyl)propyl)piperidin-4-ol] | < 50 nM |
| [2H]C([2H])([2H])NCc1ccc(-n2cc(-c3nc(NC4CCN(S(=O)(=O)c5ccn(C)n5)CC4)ncc3Cl)cn2)c(C)c1 [Example 137, 5-Chloro-N-(1-((1-methyl-1H-pyrazol-3-yl)sulfonyl)piperidin-4-yl)-4-(1-(2-methyl-4-(((methyl-d3)amino)methyl)phenyl)-1H-pyrazol-4-yl)pyrimidin-2-amine] | < 50 nM |
| CN(C)CCCCS(=O)(=O)N1CCC(Nc2ncc(C(F)(F)F)c(-c3cnn(CC(C)(C)O)c3)n2)CC1 [Example 78, 1-(4-(2-((1-((4-(Dimethylamino)butyl)sulfonyl)piperidin-4-yl)amino)-5-(trifluoromethyl)pyrimidin-4-yl)-1H-pyrazol-1-yl)-2-methylpropan-2-ol] | < 50 nM |
| CS(=O)(=O)N1CCC(Nc2ncc(C#N)c(-c3cnn(-c4ccc(CN[C@H]5C[C@@H](O)C5)cc4Cl)c3)n2)CC1 [Example 162, 4-(1-(2-Chloro-4-((((1s,3s)-3-hydroxycyclobutyl)amino)methyl)phenyl)-1H-pyrazol-4-yl)-2-((1-(methylsulfonyl)piperidin-4-yl)amino)pyrimidine-5-carbonitrile] | < 50 nM |
| CS(=O)(=O)N1CCC(Nc2ncc(C#N)c(-c3cnn(-c4ccc(CNC5CCC(C#N)CC5)cc4Cl)c3)n2)CC1 (centres unmarked) [Example 183, 4-(1-(2-Chloro-4-(((4-cyanocyclohexyl)amino)methyl)phenyl)-1H-pyrazol-4-yl)-2-((1-(methylsulfonyl)piperidin-4-yl)amino)pyrimidine-5-carbonitrile] | < 50 nM |
| O=C(Nc1ccc(S(=O)(=O)N2CCC(Nc3ncc(C(F)(F)F)c(-c4cnn(C5CCOCC5)c4)n3)CC2)cc1)N1CCOCC1 [Example 8, N-(4-((4-((4-(1-(Tetrahydro-2H-pyran-4-yl)-1H-pyrazol-4-yl)-5-(trifluoromethyl)pyrimidin-2-yl)amino)piperidin-1-yl)sulfonyl)phenyl)morpholine-4-carboxamide] | < 50 nM |
| Cc1cc(CN(C)C)ccc1-n1cc(-c2nc(NC3CCN(S(=O)(=O)c4cn(C)cn4)CC3)ncc2C(F)(F)F)cn1 [Example 106, 4-(1-(4-((Dimethylamino)methyl)-2-methylphenyl)-1H-pyrazol-4-yl)-N-(1-((1-methyl-1H-imidazol-4-yl)sulfonyl)piperidin-4-yl)-5-(trifluoromethyl)pyrimidin-2-amine] | < 50 nM |
| Cc1nn(C2CCN(C)CC2)cc1-c1nc(NC2CCN(S(C)(=O)=O)CC2)ncc1F [Example 15, 5-Fluoro-4-(3-methyl-1-(1-methylpiperidin-4-yl)-1H-pyrazol-4-yl)-N-(1-(methylsulfonyl)piperidin-4-yl)pyrimidin-2-amine] | 50 to 200 nM |
| CC(=O)N1CC(NCc2ccc(-n3cc(-c4nc(NC5CCN(S(C)(=O)=O)CC5)ncc4C#N)cn3)c(Cl)c2)C1 [Example 171, 4-(1-(4-(((1-Acetylazetidin-3-yl)amino)methyl)-2-chlorophenyl)-1H-pyrazol-4-yl)-2-((1-(methylsulfonyl)piperidin-4-yl)amino)pyrimidine-5-carbonitrile] | < 50 nM |
| CC(=O)N1CCN(Cc2ccc(-n3cc(-c4nc(N[C@H]5CCN(S(=O)(=O)c6cn(C)cn6)C[C@H]5F)ncc4C(F)(F)F)cn3)c(C)c2)CC1 [Example 104, 1-(4-(4-(4-(2-(((3R,4S)-3-Fluoro-1-((1-methyl-1H-imidazol-4-yl)sulfonyl)piperidin-4-yl)amino)-5-(trifluoromethyl)pyrimidin-4-yl)-1H-pyrazol-1-yl)-3-methylbenzyl)piperazin-1-yl)ethan-1-one] | < 50 nM |
| CS(=O)(=O)N1CCC(Nc2ncc(C#N)c(-c3cnn(-c4ccc(CNCCOC(F)(F)F)cc4Cl)c3)n2)CC1 [Example 199, 4-(1-(2-Chloro-4-(((2-(trifluoromethoxy)ethyl)amino)methyl)phenyl)-1H-pyrazol-4-yl)-2-((1-(methylsulfonyl)piperidin-4-yl)amino)pyrimidine-5-carbonitrile] | < 50 nM |
| CS(=O)(=O)N1CCC(Nc2ncc(C#N)c(-c3cnn(-c4ccc(CN[C@@H]5CC[C@@H](O)C5)cc4Cl)c3)n2)CC1 [Example 189, 4-(1-(2-Chloro-4-((((1R,3R)-3-hydroxycyclopentyl)amino)methyl)phenyl)-1H-pyrazol-4-yl)-2-((1-(methylsulfonyl)piperidin-4-yl)amino)pyrimidine-5-carbonitrile] | < 50 nM |
| CCS(=O)(=O)N1CCC(Nc2ncc(C#N)c(-c3cnn(-c4ccc(CNC)cc4Cl)c3)n2)CC1 [Example 112, 4-(1-(2-Chloro-4-((methylamino)methyl)phenyl)-1H-pyrazol-4-yl)-2-((1-(ethylsulfonyl)piperidin-4-yl)amino)pyrimidine-5-carbonitrile] | < 50 nM |
| [2H]C([2H])([2H])NCc1ccc(-n2cc(-c3nc(NC4CCN(S(=O)(=O)C5CC5)CC4)ncc3C#N)cn2)c(Cl)c1 [Example 141, 4-(1-(2-Chloro-4-(((methyl-d3)amino)methyl)phenyl)-1H-pyrazol-4-yl)-2-((1-(cyclopropylsulfonyl)piperidin-4-yl)amino)pyrimidine-5-carbonitrile] | < 50 nM |
| N#CCS(=O)(=O)N1CCC(Nc2ncc(C(F)(F)F)c(-c3cnn(C4CCOCC4)c3)n2)CC1 [Example 4, 2-((4-((4-(1-(Tetrahydro-2H-pyran-4-yl)-1H-pyrazol-4-yl)-5-(trifluoromethyl)pyrimidin-2-yl)amino)piperidin-1-yl)sulfonyl)acetonitrile] | < 50 nM |
